Measurements published in the supplement of paper PMC11061612.

Legend:
Capivasertib = compound: C1CN(CCC1(C(=O)N[C@@H](CCO)C2=CC=C(C=C2)Cl)N)C3=NC=NC4=C3C=CN4 [Capivasertib]; conditions: max 10 µM
Procedure, shortened: (§1)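 Cancer cell lines in 1536-well plates (7.5 μl DMEM/F12 or RPMI, 10% FBS) were held 24 hours at 37°C and 5% CO2 and then dosed for 72 hours at a final DMSO of typically 0.2%. Viability was taken from CellTiter-Glo 2.0 luminescence, scaled between blank-well and DMSO-well means. Curves were fitted as two-parameter logistic models with a non-linear mixed effects model, from which the single-agent IC50 was taken.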

AZD1775 = compound: C=CCn1c(=O)c2cnc(Nc3ccc(N4CCN(C)CC4)cc3)nc2n1-c1cccc(C(C)(C)O)n1 [AZD1775]
Procedure, shortened: as §1

Trametinib = compound: CC(=O)Nc1cccc(-n2c(=O)n(C3CC3)c(=O)c3c(Nc4ccc(I)cc4F)n(C)c(=O)c(C)c32)c1 [Trametinib]; conditions: max 1 µM
Procedure, shortened: as §1

Palbociclib = compound: CC(=O)c1c(C)c2cnc(Nc3ccc(N4CCNCC4)cn3)nc2n(C2CCCC2)c1=O [Palbociclib]; conditions: max 10 µM
Procedure, shortened: as §1

AZD1390 = compound: CC(C)n1c(=O)n(C)c2cnc3cc(F)c(-c4ccc(OCCCN5CCCCC5)nc4)cc3c21 [AZD1390]; conditions: max 0.3 µM
Procedure, shortened: as §1

Venetoclax = compound: CC1(C)CCC(CN2CCN(c3ccc(C(=O)NS(=O)(=O)c4ccc(NCC5CCOCC5)c([N+](=O)[O-])c4)c(Oc4cnc5[nH]ccc5c4)c3)CC2)=C(c2ccc(Cl)cc2)C1 [Venetoclax]; conditions: max 1 µM
Procedure, shortened: as §1

Dasatinib = compound: CC1=C(C(=CC=C1)Cl)NC(=O)C2=CN=C(S2)NC3=CC(=NC(=N3)C)N4CCN(CC4)CCO [Dasatinib]; conditions: max 2 µM
Procedure, shortened: as §1

SG3199 = compound: CC1=CN2[C@@H](C1)C=NC3=CC(=C(C=C3C2=O)OC)OCCCCCOC4=C(C=C5C(=C4)N=C[C@@H]6CC(=CN6C5=O)C)OC [SG3199]; conditions: max 0.001 µM
Procedure, shortened: as §1

AZD2811 = compound: CCN(CCO)CCCOc1ccc2c(Nc3cc(CC(=O)Nc4cccc(F)c4)[nH]n3)ncnc2c1 [AZD2811]; conditions: max 1 µM
Procedure, shortened: as §1

SN-38 = compound: CCc1c2c(nc3ccc(O)cc13)-c1cc3c(c(=O)n1C2)COC(=O)[C@]3(O)CC [SN-38]; conditions: max 0.3 µM
Procedure, shortened: as §1

AZD0156 = compound: CN(C)CCCOc1ccc(-c2ccc3ncc4c(c3c2)n(C2CCOCC2)c(=O)n4C)cn1 [AZD0156]
Procedure, shortened: as §1

AZD4320 = compound: CN(CC[C@H](CSC1=CC=CC=C1)NC2=C(C=C(C=C2)S(=O)(=O)NC(=O)C3=CC=C(C=C3)N4CCC(CC4)[C@H](C5=CC=CC=C5C6=CC=C(C=C6)Cl)O)S(=O)(=O)C(F)(F)F)CCO [AZD4320]; conditions: max 1 µM
Procedure, shortened: as §1

Alisertib = compound: COc1cc(Nc2ncc3c(n2)-c2ccc(Cl)cc2C(c2c(F)cccc2OC)=NC3)ccc1C(=O)O [Alisertib]; conditions: max 10 µM
Procedure, shortened: as §1

Gefitinib = compound: COc1cc2ncnc(Nc3ccc(F)c(Cl)c3)c2cc1OCCCN1CCOCC1 [Gefitinib]; conditions: max 10 µM
Procedure, shortened: as §1

Prexasertib = compound: COc1cccc(OCCCN)c1-c1cc(Nc2cnc(C#N)cn2)n[nH]1 [Prexasertib]; conditions: max 1 µM
Procedure, shortened: as §1

Doxorubicin = compound: COc1cccc2c1C(=O)c1c(O)c3c(c(O)c1C2=O)C[C@@](O)(C(=O)CO)C[C@@H]3O[C@H]1C[C@H](N)[C@H](O)[C@H](C)O1 [Doxorubicin]; conditions: max 1 µM
Procedure, shortened: as §1

AZD5153 = compound: COc1nnc2ccc(N3CCC(c4ccc(OCCN5CCN(C)C(=O)[C@H]5C)cc4)CC3)nn12 [AZD5153]; conditions: max 1 µM
Procedure, shortened: as §1

Lapatinib = compound: CS(=O)(=O)CCNCc1ccc(-c2ccc3ncnc(Nc4ccc(OCc5cccc(F)c5)c(Cl)c4)c3c2)o1 [Lapatinib]; conditions: max 10 µM
Procedure, shortened: as §1

AZD8186 = compound: C[C@@H](Nc1cc(F)cc(F)c1)c1cc(C(=O)N(C)C)cc2c(=O)cc(N3CCOCC3)oc12 [AZD8186]; conditions: max 3 µM
Procedure, shortened: as §1

Crizotinib = compound: C[C@@H](Oc1cc(-c2cnn(C3CCNCC3)c2)cnc1N)c1c(Cl)ccc(F)c1Cl [Crizotinib]; conditions: max 10 µM
Procedure, shortened: as §1

Savolitinib = compound: C[C@@H](c1ccc2nccn2c1)n1nnc2ncc(-c3cnn(C)c3)nc21 [Savolitinib]; conditions: max 1 µM
Procedure, shortened: as §1

AZD6738 = compound: C[C@@H]1COCCN1C2=NC(=NC(=C2)C3(CC3)[S@](=N)(=O)C)C4=C5C=CNC5=NC=C4 [AZD6738]; conditions: max 10 µM
Procedure, shortened: as §1

AZD5991 = compound: Cc1c2c(nn1C)CSCc1cc(n(C)n1)CSc1cc(c3ccccc3c1)OCCCc1c(C(=O)O)n(C)c3c-2c(Cl)ccc13 [AZD5991]; conditions: max 1 µM
Procedure, shortened: as §1

AZD7648 = compound: Cc1cc2ncnn2cc1Nc1ncc2c(n1)n(C1CCOCC1)c(=O)n2C [AZD7648]; conditions: max 10 µM
Procedure, shortened: as §1

Taselisib = compound: Cc1nc(-c2cn3c(n2)-c2ccc(-c4cnn(C(C)(C)C(N)=O)c4)cc2OCC3)n(C(C)C)n1 [Taselisib]; conditions: max 10 µM
Procedure, shortened: as §1

Selumetinib = compound: Cn1cnc2c(F)c(Nc3ccc(Br)cc3Cl)c(C(=O)NOCCO)cc21 [Selumetinib]; conditions: max 10 µM
Procedure, shortened: as §1

MK-2206 = compound: NC1(c2ccc(-c3nc4ccn5c(=O)[nH]nc5c4cc3-c3ccccc3)cc2)CCC1 [MK-2206]; conditions: max 10 µM
Procedure, shortened: as §1

Olaparib = compound: O=C(c1cc(Cc2n[nH]c(=O)c3ccccc23)ccc1F)N1CCN(C(=O)C2CC2)CC1 [Olaparib]; conditions: max 10 µM
Procedure, shortened: as §1

Cell Line	IC50, cell viability 72 h (Capivasertib) [nM]	IC50, cell viability 72 h (AZD1775; max 3 µM) [nM]	IC50, cell viability 72 h (Trametinib) [nM]	IC50, cell viability 72 h (Palbociclib) [nM]	IC50, cell viability 72 h (AZD1390) [nM]	IC50, cell viability 72 h (Venetoclax) [nM]	IC50, cell viability 72 h (Dasatinib) [nM]	IC50, cell viability 72 h (SG3199) [nM]	IC50, cell viability 72 h (AZD2811) [nM]	IC50, cell viability 72 h (SN-38) [nM]	IC50, cell viability 72 h (AZD0156; max 3 µM) [nM]	IC50, cell viability 72 h (AZD4320) [nM]	IC50, cell viability 72 h (Alisertib) [nM]	IC50, cell viability 72 h (Gefitinib) [nM]	IC50, cell viability 72 h (Prexasertib) [nM]	IC50, cell viability 72 h (Doxorubicin) [nM]	IC50, cell viability 72 h (AZD5153) [nM]	IC50, cell viability 72 h (Lapatinib) [nM]	IC50, cell viability 72 h (AZD8186) [nM]	IC50, cell viability 72 h (Crizotinib) [nM]	IC50, cell viability 72 h (Savolitinib) [nM]	IC50, cell viability 72 h (AZD6738) [nM]	IC50, cell viability 72 h (AZD5991) [nM]	IC50, cell viability 72 h (AZD7648) [nM]	IC50, cell viability 72 h (Taselisib) [nM]	IC50, cell viability 72 h (Selumetinib) [nM]	IC50, cell viability 72 h (MK-2206) [nM]	IC50, cell viability 72 h (Olaparib) [nM]	IC50, cell viability 72 h (AZD1775; max 1 µM) [nM]	IC50, cell viability 72 h (AZD0156; max 1 µM) [nM]
NCI-H1688 (Small Cell Lung Carcinoma)	> 10000	2540	> 1000	> 10000	> 300	> 1000	> 2000	> 1	> 1000	> 300	> 3000	> 1000	> 10000	> 10000	533	> 1000	> 1000	> 10000	> 3000	> 10000	> 1000	> 10000	> 1000	> 10000	8310	> 10000	> 10000	> 10000	–	–
RCC10RGB (Kidney Carcinoma)	> 10000	2620	753	> 10000	> 300	> 1000	435	> 1	> 1000	101	> 3000	> 1000	3460	7990	851	> 1000	> 1000	> 10000	1010	> 10000	> 1000	> 10000	> 1000	> 10000	3250	> 10000	–	> 10000	–	–
SNU-61 (Colorectal Carcinoma)	> 10000	–	529	> 10000	> 300	> 1000	> 2000	> 1	> 1000	> 300	–	> 1000	> 10000	> 10000	> 1000	> 1000	> 1000	> 10000	> 3000	> 10000	> 1000	> 10000	> 1000	> 10000	> 10000	> 10000	–	> 10000	> 1000	> 1000
U-118-MG (Low Grade Glioma)	8880	2740	> 1000	> 10000	> 300	> 1000	> 2000	> 1	> 1000	14.1	> 3000	> 1000	> 10000	> 10000	188	> 1000	> 1000	> 10000	> 3000	> 10000	> 1000	> 10000	> 1000	> 10000	6100	> 10000	–	> 10000	–	–
